From PubChem BioAssay AID651630 (Sanford-Burnham Center for Chemical Genomics, 2012)
Active and inactive are the calls of the source.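 The calls were made as follows: active = lipid-stain IC50 at or below a set limit, with nuclear-stain toxicity IC50 at least five times higher; inactive = the rest.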

Experiments:
TAG = test: triacylglycerol accumulation inhibitor potency, dose response, cell-based, panel, Nile Red and DAPI fluorescence, H9c2 (AID 651630); details: H9c2 cells, Nile Red TAG fluorescence, oleic acid;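 also: cells exposed to compound overnight before fixation and staining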
DAPI = test: as above; details: H9c2 cells, DAPI nuclear fluorescence (cytotoxicity counter-readout), oleic acid

Structure (SMILES)	IC50 (TAG; mean of runs)	IC50 (TAG; run 1) [µM]	IC50 (TAG; run 2) [µM]	IC50 cytotoxicity (DAPI nuclear signal decrease) (DAPI; mean of runs)	IC50 cytotoxicity (DAPI nuclear signal decrease) (DAPI; run 1) [µM]	IC50 cytotoxicity (DAPI nuclear signal decrease) (DAPI; run 2) [µM]
CC(C)(C)NCCC(O)c1cc(C(F)(F)F)nc2c(C(F)(F)F)cccc12 (stereo not drawn)	11.2 µM	11.5	11	> 25 µM (inactive)	> 25	> 25
CCCSc1ccc2nc(NC(=O)OC)[nH]c2c1	> 25 µM (inactive)	> 25	> 25	> 25 µM (inactive)	> 25	> 25
COC(=O)c1ccc(/C=C/c2c(-c3ccsc3)oc3ccc(N4CCOCC4)cc23)cc1	16.9 µM (inactive)	25	8.72	> 25 µM (inactive)	> 25	> 25
COc1ccc2c(c1)c(CC(=O)Nc1ccc(C)cc1)c(C)n2C(=O)c1ccc(Cl)cc1	–	20.1	> 25	> 25 µM (inactive)	> 25	> 25
Cc1occc1C(=O)NC(C)CCc1ccccc1 (stereo not drawn)	> 25 µM (inactive)	> 25	> 25	> 25 µM (inactive)	> 25	> 25
COc1ccc(CNC(=O)C[C@H]2C[C@H](C(=O)N3CCCCC3)[C@@]3(CCc4ccccc4)c4[nH]c5ccc(Cl)cc5c4CCN3C2=O)cc1OC	10 µM	9.61	10.4	> 25 µM (inactive)	> 25	> 25
CN(Cc1ccc(Cl)cc1)C(=O)CCl	> 25 µM (inactive)	> 25	> 25	> 25 µM (inactive)	> 25	> 25
CCCCCC(/C=N/Nc1ccc(S(=O)(=O)N2CCOCC2)cc1[N+](=O)[O-])=C\c1ccccc1	14.4 µM	12.8	15.9	> 25 µM (inactive)	> 25	> 25
COc1ccc(CCn2c(-n3nc(C)cc3C)nc3c2c(=O)[nH]c(=O)n3C)cc1	> 25 µM (inactive)	> 25	> 25	> 25 µM (inactive)	> 25	> 25
O=c1cc(-c2ccccc2)[nH]c2ccccc12	3.61 µM	2.45	4.77	–	20.5	> 25
CCOc1ccc(OCC)c(NC(=O)CN(c2ccc(C)cc2)S(=O)(=O)c2c(C)noc2C)c1	19.6 µM (inactive)	17.1	22	> 25 µM (inactive)	> 25	> 25
CC1(C(=O)Nc2cccc(Oc3ccccc3)c2)Cc2c(-c3ccc4c(c3)OCO4)ccnc2O1 (stereo not drawn)	> 25 µM (inactive)	> 25	> 25	> 25 µM (inactive)	> 25	> 25
COc1ccc2sc(-c3ccc(S(C)(=O)=O)cc3)c(C#Cc3cncn3C)c2c1	> 25 µM (inactive)	> 25	> 25	> 25 µM (inactive)	> 25	> 25
COc1cccc(C2c3cc4c(cc3OC(NNC(N)=O)C2C)OCO4)c1O (stereo not drawn)	> 25 µM (inactive)	> 25	> 25	> 25 µM (inactive)	> 25	> 25
COc1cccc2sc(Nc3nc(-c4cc5ccccc5oc4=O)cs3)nc12	8.35 µM	7.33	9.37	> 25 µM (inactive)	> 25	> 25
C[C@H](O)[C@@H]1CN2CCc3c([nH]c4ccc(-c5ccc6c(c5)OCO6)cc34)[C@@H]2C[C@@H]1N(C)C(=O)Nc1cc(Cl)cc(Cl)c1	18.2 µM (inactive)	11.9	24.5	> 25 µM (inactive)	> 25	> 25
CC(=O)OCC(=O)[C@@]12OC3(CCCC3)O[C@@H]1C[C@H]1[C@@H]3CCC4=CC(=O)C=C[C@]4(C)[C@@]3(F)[C@@H](O)C[C@@]12C	2.83 µM	2.71	2.95	–	> 25	> 25
O=C(C[C@H]1C[C@H](C(=O)N2CCOCC2)[C@@]2(CCC3CCCC3)c3[nH]c4ccc(Cl)cc4c3CCN2C1=O)NCC12CC3CC(CC(C3)C1)C2	> 25 µM (inactive)	> 25	> 25	> 25 µM (inactive)	> 25	> 25
COc1ccc(-c2nn(-c3ccccc3)cc2/C=C/C(=O)OCC(=O)Nc2ccccc2C#N)cc1	–	16.5	> 25	> 25 µM (inactive)	> 25	> 25
Cc1cccc(Nc2nc(NCc3ccco3)nc(N3CCOCC3)n2)c1	> 25 µM (inactive)	> 25	> 25	> 25 µM (inactive)	> 25	> 25

Now from value to compound, other results behind:

IC50 (TAG; mean of runs)	IC50 (TAG; run 1) [µM]	IC50 (TAG; run 2) [µM]	Structure (SMILES)	IC50 cytotoxicity (DAPI nuclear signal decrease) (DAPI; mean of runs)	IC50 cytotoxicity (DAPI nuclear signal decrease) (DAPI; run 1) [µM]	IC50 cytotoxicity (DAPI nuclear signal decrease) (DAPI; run 2) [µM]
18.9 µM (inactive)	16.7	21.2	COc1cc(-c2cc3nc(NCCOc4ccccc4)ccn3n2)cc(OC)c1OC	> 25 µM (inactive)	> 25	> 25
8.79 µM	7.63	9.96	COc1ccc(NS(=O)(=O)c2cccc(C(=O)N/N=C/c3cn(-c4ccccc4)nc3-c3ccccc3)c2)cc1	> 25 µM (inactive)	> 25	> 25
15.9 µM (inactive)	14.2	17.6	COc1cc(-c2ccc3oc(-c4cccc(C)c4)c(C#CC4(O)CCCCC4)c3c2)cc(OC)c1OC	> 25 µM (inactive)	> 25	> 25
> 25 µM (inactive)	> 25	> 25	Nc1c(C(=O)NCc2ccccc2)sc2nc(N3CCOCC3)c3c(c12)CCCC3	> 25 µM (inactive)	> 25	> 25
12.9 µM	12.6	13.2	O=C(CSc1nc2ccc(Nc3nc(N4CCOCC4)nc(N4CCOCC4)n3)cc2s1)Nc1ccccc1F	> 25 µM (inactive)	> 25	> 25
> 25 µM (inactive)	> 25	> 25	CCOC(=O)c1cc(CC)sc1NC(=O)c1cc([N+](=O)[O-])ccc1N1CCOCC1	> 25 µM (inactive)	> 25	> 25
> 25 µM (inactive)	> 25	> 25	CN(C)CCCN1c2ccccc2Sc2ccccc21	> 25 µM (inactive)	> 25	> 25
2.73 µM	2.74	2.71	CCc1ccc(-c2nc(C(N)=O)c3[nH]c(=O)n(-c4ccccc4OC)c3n2)cc1	–	> 25	> 25
> 25 µM (inactive)	> 25	> 25	COC(=O)c1cc(NC(=O)c2c(Cl)nc3sccn23)cc(C(=O)OC)c1	> 25 µM (inactive)	> 25	> 25
14.4 µM	15.3	13.4	CC(C)C[C@H]1CNC(=S)N1CC1CCCN1C[C@H](CC(C)C)N1C[C@H](CC(C)C)N(CCc2ccccc2)C1=S (stereo partly drawn)	> 25 µM (inactive)	> 25	> 25
> 25 µM (inactive)	> 25	> 25	CCOc1ccc2nc(-c3ccccc3)nc(SCC(=O)Nc3ncc(C)s3)c2c1	> 25 µM (inactive)	> 25	> 25
7.22 µM	4.9	9.54	O=C(Nc1sc2c(c1-c1nc3ccccc3[nH]1)CCCC2)C1CCCC1	> 25 µM (inactive)	> 25	> 25
> 25 µM (inactive)	> 25	> 25	C/C(=N\Nc1ccc(Cl)nn1)c1ccccc1O	> 25 µM (inactive)	> 25	> 25
